Results published in the OligoGym collection.
“And” between values parts separate entries of the source, which are not always exact repeats. Identical values can stand only once. After the bases stand the sugars from the 5' end (letter, count) and the backbone: PS all phosphorothioate, else s phosphorothioate and o phosphodiester by linkage. Methylation of C is not given here. e = 2'-O-(2-methoxyethyl) (MOE); l = locked nucleic acid (LNA); k = constrained ethyl (cEt); d = 2'-deoxy (DNA)

What was measured:
[1] = molecular target: MYH7; conditions: ASO, CC-2580, 5 µM
[2] = molecular target: ANGPTL2; conditions: ASO
[3] = molecular target: KRAS; conditions: ASO

CAGCTTGGCGATGATCT (sugars lldlldlddldddddll, PS)
target mRNA inhibition [1]: -6% and 1%

AGGCCAACACTAACTCG (sugars l2 d13 l2, PS)
target mRNA inhibition ([2]; 5 µM): 70.5%
target mRNA inhibition ([2]; 25 µM): 78.8%

CAGCTTGGCGATGATCT (sugars llddddddlddldldll, PS)
target mRNA inhibition [1]: 2% and 0%

TCAGCTTGGCGATGATCT (sugars l2 d7 l1 d4 l4, PS)
target mRNA inhibition [1]: 36% and 34%

CAGCTTGGCGATGATCT (sugars l2 d7 l1 d4 l3, PS)
target mRNA inhibition [1]: 18% and -5%

TCAGCTTGGCGATGATCT (sugars ldlldldldddddddlll, PS)
target mRNA inhibition [1]: 30% and 26%

TCAGCTTGGCGATGATCT (sugars ldlddldddddddlddll, PS)
target mRNA inhibition [1]: 31% and 17%

CAGCTTGGCGATGATCT (sugars lldddddddldldldll, PS)
target mRNA inhibition [1]: 1% and -1%

TTGATGATGCGGTTGTAGG (sugars l2 d15 l2, PS)
target mRNA inhibition ([2]; 5 µM): 55.3%
target mRNA inhibition ([2]; 25 µM): 67.3%

TCAGCTTGGCGATGATCT (sugars ldlldddddddldlddll, PS)
target mRNA inhibition [1]: 35% and 24%

TGCTGGGGCACAATGAA (sugars l2 d12 l3, PS)
target mRNA inhibition ([2]; 5 µM): 28.2%
target mRNA inhibition ([2]; 25 µM): 2.72%

CTTGGCAATGATCTCATCC (sugars lddddddlddllddlddll, PS)
target mRNA inhibition [1]: 34% and 17%

CTTGGCAATGATCTCATCC (sugars ldddddddldllddlddll, PS)
target mRNA inhibition [1]: 43% and 24%

CAGCTTGGCGATGATCT (sugars ldldddddddlddllll, PS)
target mRNA inhibition [1]: 40% and 31%

CAGCTCATTGTTGAGCA (sugars l2 d13 l2, PS)
target mRNA inhibition ([2]; 5 µM): 0.32%

AGCTCATTGTTGAGCAG (sugars l1 d13 l3, PS)
target mRNA inhibition ([2]; 5 µM): 4.81%
target mRNA inhibition ([2]; 25 µM): 13.2%

CTTGGCAATGATCTCATCC (sugars lddlddddddllddlddll, PS)
target mRNA inhibition [1]: 7% and -2%

TCAGCTTGGCGATGATCT (sugars lldlddldddddddllll, PS)
target mRNA inhibition [1]: 36% and 11%

CAGCTTGGCGATGATCT (sugars l2 d12 l3, PS)
target mRNA inhibition [1]: 67% and 45%

TGTAGGTGCACTTGTC (sugars l2 d12 l2, PS)
target mRNA inhibition ([2]; 5 µM): 28.5%
target mRNA inhibition ([2]; 25 µM): 49.4%

TCAGCTTGGCGATGATCT (sugars lddlddldlddddddlll, PS)
target mRNA inhibition [1]: 70% and 46%

TTGATGATGCGGTTGTAGGT (sugars l1 d17 l2, PS)
target mRNA inhibition ([2]; 5 µM): 41.3%
target mRNA inhibition ([2]; 25 µM): 48.7%

TCAGCTTGGCGATGATCT (sugars lddldldlddddddldll, PS)
target mRNA inhibition [1]: 25% and 4%

TCAGCTTGGCGATGATCT (sugars lddldlddddddlddlll, PS)
target mRNA inhibition [1]: 47% and 30%

AGGGGCTATGACTATCC (sugars l1 d14 l2, PS)
target mRNA inhibition ([2]; 5 µM): 41.3%
target mRNA inhibition ([2]; 25 µM): 45.9%

TTAACAGAGCCATCCAGG (sugars l1 d15 l2, PS)
target mRNA inhibition ([2]; 5 µM): 24.9%
target mRNA inhibition ([2]; 25 µM): 25.4%

TGAAGGAAAGTAGGAGGGA (sugars l1 d15 l3, PS)
target mRNA inhibition ([2]; 5 µM): 10.6%
target mRNA inhibition ([2]; 25 µM): 16.5%

CTTGGCAATGATCTCATCC (sugars lldddddddddldlddlll, PS)
target mRNA inhibition [1]: 52% and 34%

CTTGGCAATGATCTCATCC (sugars l2 d5 l1 d7 l4, PS)
target mRNA inhibition [1]: 69% and 45%

CCTTTTCACTCTCAATAT (sugars l3 d13 l2, PS)
target mRNA inhibition ([2]; 5 µM): 36.8%
target mRNA inhibition ([2]; 25 µM): 43.5%

TCAGCTTGGCGATGATCT (sugars ldlddllddlddddddll, PS)
target mRNA inhibition [1]: 17% and 3%

CAGCTTGGCGATGATCT (sugars lldddddddlddlldll, PS)
target mRNA inhibition [1]: 30% and 25%

CCAGGCAGTTTCTTATG (sugars l1 d13 l3, PS)
target mRNA inhibition ([2]; 5 µM): 16.4%
target mRNA inhibition ([2]; 25 µM): 25.8%

TGATGCGGTTGTAGGT (sugars l2 d12 l2, PS)
target mRNA inhibition ([2]; 5 µM): 73.2%

CAGCTTGGCGATGATCT (sugars l2 d11 l4, PS)
target mRNA inhibition [1]: 65% and 45%

CAGCTTGGCGATGATCT (sugars lddlddddddddlldll, PS)
target mRNA inhibition [1]: 29% and 5%

CAGGTGCTGGTACTTGTG (sugars l1 d15 l2, PS)
target mRNA inhibition ([2]; 5 µM): 40.4%
target mRNA inhibition ([2]; 25 µM): 54.2%

TCAGCTTGGCGATGATCT (sugars l3 d11 l4, PS)
target mRNA inhibition [1]: 68% and 52%

TTGAGATTCCCCCAAAG (sugars l2 d11 l4, PS)
target mRNA inhibition ([2]; 5 µM): 28.3%
target mRNA inhibition ([2]; 25 µM): 41.2%

GAGTTGAAGGGAGGTGC (sugars l1 d14 l2, PS)
target mRNA inhibition ([2]; 5 µM): 17.7%
target mRNA inhibition ([2]; 25 µM): -10.3%

TCAGCTTGGCGATGATCT (sugars llddlddddddddlddll, PS)
target mRNA inhibition [1]: 35% and 16%

CAGCTTGGCGATGATCT (sugars ldldlddddddlddlll, PS)
target mRNA inhibition [1]: 38% and 29%

TAGTGGGCACAGTTTCC (sugars l1 d14 l2, PS)
target mRNA inhibition ([2]; 5 µM): 21.2%
target mRNA inhibition ([2]; 25 µM): 36.4%

TTGGACAACTAGGCAGCA (sugars l3 d13 l2, PS)
target mRNA inhibition ([2]; 5 µM): 38.8%
target mRNA inhibition ([2]; 25 µM): 60.3%

GAACCATTTTGAGATTCC (sugars l3 d13 l2, PS)
target mRNA inhibition ([2]; 5 µM): 56.6%
target mRNA inhibition ([2]; 25 µM): 52%

CTTGGCAATGATCTCATCC (sugars l4 d12 l3, PS)
target mRNA inhibition [1]: 73% and 58%

GAGCCTTTACATGCCG (sugars l2 d12 l2, PS)
target mRNA inhibition ([2]; 5 µM): 41%
target mRNA inhibition ([2]; 25 µM): 66.8%

CAGCTTGGCGATGATCT (sugars llddddlddddldldll, PS)
target mRNA inhibition [1]: 15% and 5%

TCCAGGGTGGTGAACTG (sugars l2 d13 l2, PS)
target mRNA inhibition ([2]; 5 µM): 25.1%
target mRNA inhibition ([2]; 25 µM): 23.2%

GCAAAGGTCAGAAACATC (sugars l3 d12 l3, PS)
target mRNA inhibition ([2]; 5 µM): 28.8%
target mRNA inhibition ([2]; 25 µM): 37.7%

TGGTTGATGATGCGGTTG (sugars l2 d14 l2, PS)
target mRNA inhibition ([2]; 5 µM): 77.6%
target mRNA inhibition ([2]; 25 µM): 86.1%

AACCATTTTGAGATTCCC (sugars l3 d13 l2, PS)
target mRNA inhibition ([2]; 5 µM): 40.2%
target mRNA inhibition ([2]; 25 µM): 52.7%

ACAAGCCAGTTGTATGT (sugars l1 d12 l4, PS)
target mRNA inhibition ([2]; 5 µM): 58.2%
target mRNA inhibition ([2]; 25 µM): 72.3%

AGTTCTGTTTGATCTTC (sugars l2 d11 l4, PS)
target mRNA inhibition ([2]; 5 µM): 52.7%
target mRNA inhibition ([2]; 25 µM): 69.2%

AGGCAAGATGACACTA (sugars k3 d10 k3, PS)
target mRNA inhibition ([3]; A431, 2 µM): 21%

TTGAAAAGTGTTTATG (sugars k3 d10 k3, PS)
target mRNA inhibition ([3]; A431, 2 µM): 26%

TGGGCATAGTGGGCAGA (sugars l1 d14 l2, PS)
target mRNA inhibition ([2]; 5 µM): 58.9%
target mRNA inhibition ([2]; 25 µM): 64%

CACTTGTACTAGTATG (sugars k3 d10 k3, PS)
target mRNA inhibition ([3]; A431, 2 µM): 36%

ACAGGGAAAGAATTTGGGTC (sugars l1 d16 l3, PS)
target mRNA inhibition ([2]; 5 µM): 44.4%
target mRNA inhibition ([2]; 25 µM): 37.5%

ATCTTGTTGAGCTATC (sugars k3 d10 k3, PS)
target mRNA inhibition ([3]; A431, 2 µM): 40%

ATTAGGAGTCTTTATA (sugars k3 d10 k3, PS)
target mRNA inhibition ([3]; A431, 2 µM): 20%

TGCTGTGAAACTCTCT (sugars k3 d9 k3 e1, PS)
target mRNA inhibition ([3]; A431, 2 µM): 23%

GTGTTTATGCAATGTT (sugars kkddddddddkekekk, PS)
target mRNA inhibition ([3]; A431, 2 µM): 9%

TTGATTTGTCAGCAGG (sugars kkddddddddddkeke, PS)
target mRNA inhibition ([3]; A431, 0.185 µM): 25%
target mRNA inhibition ([3]; A431, 0.556 µM): 48%
target mRNA inhibition ([3]; A431, 1.667 µM): 62%
target mRNA inhibition ([3]; A431, 2 µM): 66% and 45%
target mRNA inhibition ([3]; A431, 5 µM): 83%

GAGATATCCACAGCAG (sugars k3 d10 k3, PS)
target mRNA inhibition ([3]; A431, 2 µM): 49%

ACAAATGCTAATAATT (sugars k3 d10 k3, PS)
target mRNA inhibition ([3]; A431, 2 µM): 1%

GAACCATTTTGAGATTCCC (sugars l1 d16 l2, PS)
target mRNA inhibition ([2]; 5 µM): 27.6%
target mRNA inhibition ([2]; 25 µM): 7.84%

AGTCTATTTCAGGCGG (sugars k3 d10 k3, PS)
target mRNA inhibition ([3]; A431, 5 µM): 50%

CCAGTGTTAAGAGAAC (sugars k3 d9 k3 e1, PS)
target mRNA inhibition ([3]; A431, 2 µM): 55%

ATGGTGTAACATAGGT (sugars kddddddddddkekek, PS)
target mRNA inhibition ([3]; A431, 2 µM): 47%

AACCATTTTGAGATTCC (sugars l4 d11 l2, PS)
target mRNA inhibition ([2]; 5 µM): 67.7%
target mRNA inhibition ([2]; 25 µM): 81.3%

CCAGTGATACTTTCAC (sugars k3 d10 k3, PS)
target mRNA inhibition ([3]; A431, 2 µM): 15%

CTATCCTCTCCCAAACATG (sugars l1 d16 l2, PS)
target mRNA inhibition ([2]; 5 µM): 16%
target mRNA inhibition ([2]; 25 µM): 24.1%

GGAGTCTTTATAGTAA (sugars k3 d10 k3, PS)
target mRNA inhibition ([3]; A431, 2 µM): 38%

CGGTTGTAGGTGGGTGG (sugars l1 d14 l2, PS)
target mRNA inhibition ([2]; 5 µM): 21.1%
target mRNA inhibition ([2]; 25 µM): -3.3%

GCATGTAAATATAGCC (sugars k3 d10 k3, PS)
target mRNA inhibition ([3]; A431, 2 µM): 11%

TCCAGTGATACTTTCA (sugars kkkddddddddkekek, PS)
target mRNA inhibition ([3]; A431, 2 µM): 48%

AGTTGATAGTTTATCTCC (sugars l2 d14 l2, PS)
target mRNA inhibition ([2]; 5 µM): 51.7%
target mRNA inhibition ([2]; 25 µM): 64.9%

GTTTATGCAATGTTAA (sugars kdddddddddkekeke, PS)
target mRNA inhibition ([3]; A431, 2 µM): 31%

ACACCCAAGACTCAGAT (sugars l4 d11 l2, PS)
target mRNA inhibition ([2]; 5 µM): 6.49%
target mRNA inhibition ([2]; 25 µM): 5.75%

GTTTCACATAGCAATT (sugars k3 d10 k3, PS)
target mRNA inhibition ([3]; A431, 2 µM): 29%

ACTTGAAAAGTGTTTA (sugars k3 d10 k3, PS)
target mRNA inhibition ([3]; A431, 2 µM): 16%

GCTGGAAAGAGGGATAGA (sugars l2 d14 l2, PS)
target mRNA inhibition ([2]; 5 µM): 60.7%
target mRNA inhibition ([2]; 25 µM): 66.2%

TGTAGTTTCACATAGC (sugars k3 d10 k3, PS)
target mRNA inhibition ([3]; A431, 0.185 µM): 28% and 3%
target mRNA inhibition ([3]; A431, 0.556 µM): 45% and 34%
target mRNA inhibition ([3]; A431, 2 µM): 59%
target mRNA inhibition ([3]; A431, 5 µM): 75% and 69%

CCAGCCGCAGCTTATA (sugars l1 d13 l2, PS)
target mRNA inhibition ([2]; 5 µM): 21.8%
target mRNA inhibition ([2]; 25 µM): 35.3%

TGGTGTAACATAGGTT (sugars kkdddddddddkdkdk, PS)
target mRNA inhibition ([3]; A431, 0.185 µM): 13%
target mRNA inhibition ([3]; A431, 0.556 µM): 33%
target mRNA inhibition ([3]; A431, 1.667 µM): 63%
target mRNA inhibition ([3]; A431, 2 µM): 57%
target mRNA inhibition ([3]; A431, 5 µM): 75%

CTCCGGTAATGGCCC (sugars l1 d12 l2, PS)
target mRNA inhibition ([2]; 5 µM): -5%
target mRNA inhibition ([2]; 25 µM): 15.6%

CTGTCTATTCATACCA (sugars k3 d10 k3, PS)
target mRNA inhibition ([3]; A431, 2 µM): 34%

TAGTGATTAGGTCAAA (sugars kkddddddddddkeke, PS)
target mRNA inhibition ([3]; A431, 2 µM): 34%
